Assay results published in paper PMC11470957, “Principles of paralog-specific targeted protein degradation engaging the C-degron E3 KLHDC2” (Nature Communications, 2024).
Where “and” joins values, the source holds several entries; their conditions need not be identical. Equal entries are not always repeated.

How the values were obtained:
KLHDC2^SBD [1] = molecular target: T1, KLHDC2^SBD (Homo sapiens, UniProt Q9Y2U9); experiment: TR-FRET assay, competition with di-Gly degron peptide binding to KLHDC2^SBD; design: KLHDC2^SBD (15-361) and its Avi-tagged counterpart were expressed in E. coli Rosetta2 cells; 6XHis-MBP (N, cleaved yes); made in house; host or cells: E. coli Rosetta2; conditions: for IC50: inhibition of KLHDC2^SBD binding to a di-Gly degron peptide, read-out: TR-FRET IC50
T1 sequence (Q9Y2U9 15-361): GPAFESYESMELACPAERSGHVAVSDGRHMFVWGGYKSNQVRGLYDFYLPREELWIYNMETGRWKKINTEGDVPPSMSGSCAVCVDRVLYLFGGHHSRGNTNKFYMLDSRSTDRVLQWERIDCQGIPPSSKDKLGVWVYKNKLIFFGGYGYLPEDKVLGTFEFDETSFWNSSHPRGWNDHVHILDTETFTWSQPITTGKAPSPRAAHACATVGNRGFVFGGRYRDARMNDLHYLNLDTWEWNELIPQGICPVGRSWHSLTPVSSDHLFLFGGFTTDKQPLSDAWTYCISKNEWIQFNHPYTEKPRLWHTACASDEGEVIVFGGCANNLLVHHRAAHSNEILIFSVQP
Procedure: TR-FRET assays were carried out in black 384-well microtiter plates at a final volume of 20 μL per well. An assay cocktail was prepared as a mixture of 50 nM Biotin-KLHDC2 SBD, 20 nM AlexaFluor488-RIC8B peptide, 2.5 nM Tb-Streptavidin (ThermoFisher) in assay buffer (25 mM HEPES, 100 mM NaCl, 0.1% Triton X-100, 0.5 mM DTT, pH 7.5). The assay cocktail was incubated for thirty-minutes at room temperature and 20 μl distributed to assay plates. Molecules were distributed to the plates at the indicated concentration and the assay mixture was incubated for 1 h at room temperature prior to measuring the TR-FRET signal with a PHERAstar FS plate reader (BMG Labtech) equipped with modules for excitation at 337 nm and emissions at 490 and 520 nm. The integration start was set to 100 µs and the integration time to 200 µs. The number of flashes was fixed at 100. The ratio of 520/490 was used as TR-FRET signal in calculations. Assay endpoints were normalized to 100% (buffer only) and used for curve fitting in Prism.

KLHDC2^SBD [2] = molecular target: T1, KLHDC2^SBD; experiment: Surface plasmon resonance binding to KLHDC2; design: KLHDC2^SBD (15-361) and its Avi-tagged counterpart were expressed in E. coli Rosetta2 cells; 6XHis-MBP (N, cleaved yes); made in house; host or cells: E. coli Rosetta2; conditions: for SPR Rmax / SPR dissociation constant kd: n=1; for Kd: read-out: SPR Kd; for SPR Response: FigS2d
Procedure: Surface plasmon resonance (SPR) was utilized to determine kinetic parameters and binding affinity of KLHDC2 substrates using a PioneerFE (Sartorius). Experiments were carried out in 20 mM Tris, 200 mM NaCl, 1 mM TCEP, 0.01% Brij35, and 1% DMSO at pH 7.4 as a running buffer with a 100 µL/min flow rate at 20 °C.
The 10xHis-KLHDC2 was immobilized onto a Ni-NTA-coated biosensor chip (HisCap). The chip surface was conditioned using 10 mM HCl, 50 mM NaOH, and 0.1% SDS (50 µL at 100 µL/min) twice, followed by a 100 mM Tris buffer wash (100 µL at 100 µL/min). The surface was then activated using an injection of 0.5 M EDTA (125 µL at 25 µL/min) followed by an injection of 5 mM NiCl2 (125 µL at 25 µL/min). […] Channel 2 was treated identically to channel 3 except for protein loading to be used as a reference channel. […] 100% of the loop was injected with a 300 s dissociation time. All samples were run in triplicate. Data was analyzed using Qdat software and fit to a simple 1-site model.
The SPR experiments were performed to determine the binding affinities (KD) of KLHDC2-SJ46411 and KLHDC2-SJ46418 complexes. All the experiments were performed using a Biacore 1S+ instrument. […] The running buffer consisted of 20 mM Tris pH 7.5, 200 mM NaCl, 1 mM TCEP, 0.01% Brij35, and 4% DMSO. […] In brief, before the immobilization, the sensor chip surface was conditioned by injecting a mixture of (3:1 v/v) 8 M guanidine hydrochloride and 1 M NaOH at a flow rate of 5 μL/min for 2 min for two times. Then, running buffer was injected at a 30 μl/min flow rate for 1 min 3 times. Next, the Biotin CAPture reagent was injected at a flow rate of 2 μl/min for 5 min. Then, biotinylated KLHDC2 was only injected onto the active channel (channel 2).
Sample preparation was carried out precisely the same as SJ46411. All experiments were performed using a multi-cycle analysis method with a 30 μl/min flow rate, 120 S association, and 240 s dissociation time. All data were reference subtracted and corrected for DMSO mismatch. The sensorgrams were analyzed using Biacore insight evaluation software, and KD was determined using the 1:1 steady-state affinity fitting. Finally, all the analyzed data was replotted using GraphPad Prizm 10 software.

KLHDC2^SBD [3] = molecular target: T1, KLHDC2^SBD; experiment: ITC, binary binding of small molecule to KLHDC2^SBD
[4] = ITC Kd, cell: ligand, syringe: KLHDC2^SBD
[5] = cell: ligand, syringe: KLHDC2^SBD

For `O=C(O)CNC(=O)Cc1csc(-c2ccccc2F)n1` [SJ6145], the “% Inhibition, normalized TR-FRET dose response” value (KLHDC2^SBD [1]; Log Concentration (uM 2.8348)) was 0%, the “% Inhibition, normalized TR-FRET dose response” value (KLHDC2^SBD [1]; Log Concentration (uM 3.13583)) was 5.022% and the “% Inhibition, normalized TR-FRET dose response” value (KLHDC2^SBD [1]; Log Concentration (uM 4.64098)) was 41.3917%. For the same compound, the “% Inhibition, normalized TR-FRET dose response” value (KLHDC2^SBD [1]; Log Concentration (uM 4.94201)) was 60.6887%, the “% Inhibition, normalized TR-FRET dose response” value (KLHDC2^SBD [1]; Log Concentration (uM 5.24304)) was 71.5686% and the “% Inhibition, normalized TR-FRET dose response” value (KLHDC2^SBD [1]; Log Concentration (uM 5.54407)) was 79.1487%. For the same compound, the IC50 (KLHDC2^SBD [1]) was 42000 nM, the “SPR Rmax” value (KLHDC2^SBD [2]) was 8.25 +/- 0.01 and the “SPR dissociation constant kd” value (KLHDC2^SBD [2]) was 4.19 s⁻¹. For the same compound, the Kd (KLHDC2^SBD [2]) was 16900 nM.
`COCOc1ccc(-c2nc(CC(=O)NCC(=O)O)cs2)c(Cl)c1` [SJ10278] was tested, and the “% Inhibition, normalized TR-FRET dose response” value (KLHDC2^SBD [1]; Log Concentration 2, Rep1) was 8.293%, the “% Inhibition, normalized TR-FRET dose response” value (KLHDC2^SBD [1]; Log Concentration 2, Rep2) was 0% and the “% Inhibition, normalized TR-FRET dose response” value (KLHDC2^SBD [1]; Log Concentration 2, Rep3) was 0%. The “% Inhibition, normalized TR-FRET dose response” value (KLHDC2^SBD [1]; Log Concentration 3.39794, Rep1) was 11.5657%, the “% Inhibition, normalized TR-FRET dose response” value (KLHDC2^SBD [1]; Log Concentration 3.39794, Rep2) was 0% and the “% Inhibition, normalized TR-FRET dose response” value (KLHDC2^SBD [1]; Log Concentration 3.39794, Rep3) was 5.531%. For the same compound, the “% Inhibition, normalized TR-FRET dose response” value (KLHDC2^SBD [1]; Log Concentration 3.87506, Rep1) was 26.5428%, the “% Inhibition, normalized TR-FRET dose response” value (KLHDC2^SBD [1]; Log Concentration 3.87506, Rep2) was 8.417% and the “% Inhibition, normalized TR-FRET dose response” value (KLHDC2^SBD [1]; Log Concentration 3.87506, Rep3) was 8.069%. For the same compound, the “% Inhibition, normalized TR-FRET dose response” value (KLHDC2^SBD [1]; Log Concentration 4.35218, Rep1) was 43.4059%, the “% Inhibition, normalized TR-FRET dose response” value (KLHDC2^SBD [1]; Log Concentration 4.35218, Rep2) was 37.2745% and the “% Inhibition, normalized TR-FRET dose response” value (KLHDC2^SBD [1]; Log Concentration 4.35218, Rep3) was 43.973%. For the same compound, the “% Inhibition, normalized TR-FRET dose response” value (KLHDC2^SBD [1]; Log Concentration 4.81291, Rep1) was 67.7021%, the “% Inhibition, normalized TR-FRET dose response” value (KLHDC2^SBD [1]; Log Concentration 4.81291, Rep2) was 64.6478% and the “% Inhibition, normalized TR-FRET dose response” value (KLHDC2^SBD [1]; Log Concentration 4.81291, Rep3) was 77.6282%. The IC50 (KLHDC2^SBD [1]) was 24100 nM, the “SPR Rmax” value (KLHDC2^SBD [2]) was 11.33 +/- 0.02 and the “SPR dissociation constant kd” value (KLHDC2^SBD [2]) was 2.03 s⁻¹. For the same compound, the Kd (KLHDC2^SBD [2]) was 8800 nM and 8790 nM.
For `O=C(O)CNC(=O)Cc1csc(-c2ccc3ccccc3c2)n1` [SJ46411], the Kd (KLHDC2^SBD [3]; [4]) was ~260 nM and 220 nM, the Kd (KLHDC2^SBD [3]; Kd, ITC, syringe KLHDC2, cell compound, Rep1, Rep2) was 202 nM and 238 nM and the “ITC -TΔS” value (KLHDC2^SBD [3]; [5]) was -1.52 +/- 0.04 kcal/mol-1. The “ITC stoichiometry of binding N” value (KLHDC2^SBD [3]; [5]) was 0.9, the “ITC ΔG” value (KLHDC2^SBD [3]; [5]) was -8.81 +/- 0.07 kcal/mol-1 and the “ITC ΔH” value (KLHDC2^SBD [3]; [5]) was -7.30 +/- 0.10 kcal/mol-1. The “% Inhibition, normalized TR-FRET dose response” value (KLHDC2^SBD [1]; Log Concentration 2.39794, Rep1-Rep3) was 6.354% and 5.4752% and 4.71%, the “% Inhibition, normalized TR-FRET dose response” value (KLHDC2^SBD [1]; Log Concentration 2.64098, Rep1-Rep3) was 7.948% and 6.2789% and 8.198% and the “% Inhibition, normalized TR-FRET dose response” value (KLHDC2^SBD [1]; Log Concentration 3.273, Rep1-Rep3) was 31.9514% and 32.2878% and 31.935%. The “% Inhibition, normalized TR-FRET dose response” value (KLHDC2^SBD [1]; Log Concentration 3.87506, Rep1-Rep3) was 66.95% and 63.4771% and 63.8138%, the “% Inhibition, normalized TR-FRET dose response” value (KLHDC2^SBD [1]; Log Concentration 4.39794, Rep1-Rep3) was 94.0253% and 93.427% and 93.3896% and the “% Inhibition, normalized TR-FRET dose response” value (KLHDC2^SBD [1]; Log Concentration 4.69897, Rep1-Rep3) was 96.203% and 95.4411% and 96.0366%. For the same compound, the “% Inhibition, normalized TR-FRET dose response” value (KLHDC2^SBD [1]; Log Concentration 4.94201, Rep1-Rep3) was 96.4266% and 96.3416% and 96.2278%, the IC50 (KLHDC2^SBD [1]) was 3900 nM and the “SPR Response” value (KLHDC2^SBD [2]; analyte 0.146484 μM) was 4.647 RU. The “SPR Response” value (KLHDC2^SBD [2]; analyte 0.292969 μM) was 7.784 RU, the “SPR Response” value (KLHDC2^SBD [2]; analyte 0.585938 μM) was 11.5982 RU and the “SPR Response” value (KLHDC2^SBD [2]; analyte 2.34375 μM) was 17.8875 RU. For the same compound, the “SPR Response” value (KLHDC2^SBD [2]; analyte 4.6875 μM) was 19.5092 RU, the “SPR Response” value (KLHDC2^SBD [2]; analyte 9.375 μM) was 20.5795 RU and the “SPR Rmax” value (KLHDC2^SBD [2]) was 24.50 +/- 0.30. For the same compound, the Kd (KLHDC2^SBD [2]) was 500 nM and 526 nM.
For `Cc1sc2c(c1C)C(c1ccc(Cl)cc1)=N[C@@H](CC(=O)N1CCN(CCOc3cccc4ccc(-c5nc(CC(=O)NCC(=O)O)cs5)cc34)CC1)c1nnc(C)n1-2` [SJ46421], the Kd (KLHDC2^SBD [3]; [4]) was 304 ± 39 nM, the Kd (KLHDC2^SBD [3]; Kd, Rep1/Rep2, ITC source data Fig4a, syringe KLHDC2, cell PROTAC alone) was 338 nM and 269 nM and the “ITC -TΔS” value (KLHDC2^SBD [3]; [5]) was -1.03 +/- 0.22 kcal/mol-1. The “ITC stoichiometry of binding N” value (KLHDC2^SBD [3]; [5]) was 0.8, the “ITC ΔG” value (KLHDC2^SBD [3]; [5]) was -9.1 +/- 0.02 kcal/mol-1 and the “ITC ΔH” value (KLHDC2^SBD [3]; [5]) was -8.07 +/- 0.22 kcal/mol-1.
